These results are taken from US8691187B2, “Imaging agents for detecting neurological disorders” (Eli Lilly and Company, priority 2009, dated 2014).

The target of one data set is T1, MAO-A (Homo sapiens, UniProt P21397).
T1 sequence (P21397 1-527): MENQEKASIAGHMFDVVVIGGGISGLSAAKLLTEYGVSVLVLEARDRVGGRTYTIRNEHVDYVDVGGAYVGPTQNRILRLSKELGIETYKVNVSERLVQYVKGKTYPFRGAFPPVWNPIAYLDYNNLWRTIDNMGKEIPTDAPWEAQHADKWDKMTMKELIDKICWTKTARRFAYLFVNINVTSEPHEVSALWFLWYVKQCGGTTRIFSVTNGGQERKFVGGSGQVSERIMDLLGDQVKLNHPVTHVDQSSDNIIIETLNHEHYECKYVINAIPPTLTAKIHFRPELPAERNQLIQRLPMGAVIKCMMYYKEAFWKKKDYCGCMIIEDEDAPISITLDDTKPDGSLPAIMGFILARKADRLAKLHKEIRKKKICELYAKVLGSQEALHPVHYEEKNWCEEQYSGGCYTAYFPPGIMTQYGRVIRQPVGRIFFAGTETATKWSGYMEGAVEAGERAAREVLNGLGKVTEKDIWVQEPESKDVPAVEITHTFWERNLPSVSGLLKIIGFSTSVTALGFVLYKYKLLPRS
Briefly: MAO inhibition, MAO-A. The data set is classed as biochemical.

The next data set has as its target synthetic tau (Homo sapiens, UniProt P10636). Briefly: Synthetic tau Kd (F-18 labeled and cold compound, filtration). Format: binding. The settings on record: Scheme 6 table. The protocol:
(§1) Pick one brain section for each type and air-dry in hood. A solution of diluted F-18 labeled tracer (40 μCi/mL, 500 μL) which was obtained from the dilution of F-18 tracer with 1×PBS containing 2.5% EtOH and 2.5% DMSO was applied onto each slides to cover the whole tissue section. The resulting slides were incubated at room temperature for 90 minutes, drained, and placed onto a slide holder. The slides were then washed sequentially with 1×PBS for 1 min; 70% EtOH in 1×PBS for 2 min; 30% EtOH in 1×PBS for 2 min; and 1×PBS for 1 min. The slides were dried in the hood for 30 min, and then placed on Fuji imaging plates and exposed overnight. The imaging plates were then scanned and the signal was measured using Fuji software to produce an autoradiography image of the brain section. (PBS—Phosphate Buffer Saline) Protocol for Synthetic Beta-amyloid and Tau Kds
Various concentrations solution of F-18 labeled and its parent cold compound in 1×PBS containing 5% Ethanol and 5% DMSO (pH 7.4) were incubated with synthetic beta-Amyloid or synthetic tau at room temperature in glass tubes for 90 min. The reaction mixture in each tube was filtered under vacuum through a microfiber filter. Each tube was washed with a solution of 20% EtOH in PBS. The PBS wash solution was filtered under vacuum through the filters. Each filter was then washed with a solution of 20% EtOH in PBS and then placed into a gamma counter vial for CPM counting. The data obtained was plotted for Kd determination.

The test system of a further data set is Monoamine transp. The experiment in a line: CNS selectivity panel, monoamine transporter. Format: binding.
A further data set concerns human AD brain slices. Briefly: Human AD brain section autoradiography with F-18 tracer. The data set is classed as binding. The settings on record: for GM Intensity (comp. with W372): compared with W372; for Tx/tau/amyloid correlation: tracer signal vs tau and amyloid load.
Description: Furthermore, the selectivity can be evaluated in brains containing only Aβ plaques/no tau aggregates, Aβ plaques/and tau aggregates, and control brains. Unfortunately, there are no AD brains with only tau and no Aβ present. By testing radiolabeled tracers in these brain sections, one can more quantitative evaluate the relative binding strength (signal strength) and selectivity of various test compounds as they all contain the same radioactive tracer. For examples, if a test tracer binds only to tau, and not amyloid, it should show no signal in the Aβ plaques only brain sections. If a compound binds only to amyloid, it should show uptake in both types of brains. The difficulty of identifying and further quantifying selective compounds lies in the relative abundance of amyloid vs. tau, which is difficult to measure.
Human AD Brain Section Autoradiography
5 micron thick human AD brain slices were first examined using antibodies for Aβ and Tau to determine whether the tested human brain contains Aβ and Tau. Thus, three types of human brain slices were selected for autoradiography: Aβ+/Tau+; Aβ+/Tau−; and Aβ−/Tau−(control).
The experimental protocol is as follows:
as §1

Another data set addresses T2, MAO-B (Homo sapiens, UniProt P27338).
T2 sequence (P27338 1-520): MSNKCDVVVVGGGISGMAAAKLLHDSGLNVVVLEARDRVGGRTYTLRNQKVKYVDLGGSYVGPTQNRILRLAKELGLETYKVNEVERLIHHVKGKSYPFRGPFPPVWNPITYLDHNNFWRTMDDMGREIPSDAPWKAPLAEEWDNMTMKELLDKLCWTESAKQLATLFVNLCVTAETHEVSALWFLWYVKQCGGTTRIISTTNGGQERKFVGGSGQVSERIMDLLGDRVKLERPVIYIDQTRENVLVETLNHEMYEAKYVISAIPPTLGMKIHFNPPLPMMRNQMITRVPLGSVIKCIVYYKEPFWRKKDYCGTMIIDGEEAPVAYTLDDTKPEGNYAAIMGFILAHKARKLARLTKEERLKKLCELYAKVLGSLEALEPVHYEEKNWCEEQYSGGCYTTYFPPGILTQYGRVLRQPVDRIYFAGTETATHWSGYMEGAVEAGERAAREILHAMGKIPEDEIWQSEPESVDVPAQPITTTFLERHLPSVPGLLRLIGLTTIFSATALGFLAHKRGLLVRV
Briefly: MAO inhibition, MAO-B. The data set is classed as biochemical.

The next data set has as its system human hepatocytes. Briefly: Stability in human hepatocytes. Format: in vitro ADME.
The target in another data set is Norepinephrine transp. (Homo sapiens, UniProt P23975). Briefly: CNS selectivity panel, norepinephrine transporter. The data set is classed as binding.
Sequence of Norepinephrine transp. (P23975 whole entry): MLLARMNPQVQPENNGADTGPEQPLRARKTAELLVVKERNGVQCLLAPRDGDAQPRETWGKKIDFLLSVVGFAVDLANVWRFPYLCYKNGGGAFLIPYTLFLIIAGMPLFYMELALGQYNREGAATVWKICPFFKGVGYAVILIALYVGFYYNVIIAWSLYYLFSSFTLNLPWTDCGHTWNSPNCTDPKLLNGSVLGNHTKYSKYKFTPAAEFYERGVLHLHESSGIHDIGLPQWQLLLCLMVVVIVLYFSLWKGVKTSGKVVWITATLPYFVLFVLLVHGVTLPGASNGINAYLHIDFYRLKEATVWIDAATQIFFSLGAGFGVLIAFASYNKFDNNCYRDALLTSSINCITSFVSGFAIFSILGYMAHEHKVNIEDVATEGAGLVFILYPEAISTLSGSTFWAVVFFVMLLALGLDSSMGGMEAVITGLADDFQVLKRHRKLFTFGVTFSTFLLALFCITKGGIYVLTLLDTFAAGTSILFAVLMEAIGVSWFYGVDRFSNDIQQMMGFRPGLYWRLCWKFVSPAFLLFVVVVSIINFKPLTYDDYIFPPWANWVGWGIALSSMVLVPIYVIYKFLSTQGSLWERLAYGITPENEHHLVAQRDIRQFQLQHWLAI
The target in another data set is T3, Bombesin BB3 (Homo sapiens, UniProt P32247).
T3 sequence (P32247 1-399): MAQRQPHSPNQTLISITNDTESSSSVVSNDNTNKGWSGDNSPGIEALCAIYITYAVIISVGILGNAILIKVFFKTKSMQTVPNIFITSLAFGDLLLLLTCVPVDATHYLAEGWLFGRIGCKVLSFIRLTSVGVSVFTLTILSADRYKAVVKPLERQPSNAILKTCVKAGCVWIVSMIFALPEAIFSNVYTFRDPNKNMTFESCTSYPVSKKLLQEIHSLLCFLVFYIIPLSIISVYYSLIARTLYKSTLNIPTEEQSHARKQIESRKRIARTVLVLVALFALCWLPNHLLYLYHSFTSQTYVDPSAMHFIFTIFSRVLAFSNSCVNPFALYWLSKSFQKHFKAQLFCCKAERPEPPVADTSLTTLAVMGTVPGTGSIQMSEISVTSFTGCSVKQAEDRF
Briefly: CNS selectivity panel, Bombesin BB3. Format: binding. As to conditions: 10 uM (printed in T777 column).

The next data set addresses AchE (Homo sapiens, UniProt P22303). Briefly: AchE activity. The data set is classed as biochemical.
The next data set deals with tau/Ab. Briefly: selectivity (tau/Ab). Format: binding.
The nature of data set [1]: Mouse and rat brain microPET imaging (brain uptake). The data set is classed as in vivo. As to conditions: rats and mice. The protocol: Mouse and Rat Brain microPET Imaging
Wild type mice and rats were injected intravenously with the candidate tracers. Mice (weight range 25-45 g) were injected with doses between 180 and 300 μCi in 200 uL of saline solution. Rats (weight range 300-400 g) were injected with doses between 300 and 500 μCi of tracer in 400 μL of saline solution. Anesthesia was induced and maintained with Isoflurane. CT and PET scans were performed with a MM INVEON scanner (SIEMENS™). Acquisition for CT images preceded PET scanning and lasted 5 minutes. Only several minutes after the beginning of the PET acquisition, the radioactive dose was injected into the animal through the tail vein. Images were generated as dynamic scans that typically lasted 30 minutes. The initial image analysis consisted of determining whether there was uptake of the tracer in the brain which would establish its ability to cross the blood-brain barrier. All measurements were performed at the time point of 5 minutes following the injection of the tracer. The degree of uptake in the brain was estimated relative to the uptake of the traces in the region of neck muscles. The ratio between the percentage of injected dose per gram in the brain and that of the muscular neck region was provided as an estimate of brain uptake.

The structures appear in SMILES notation.

Sequence of AchE (P22303 32-614): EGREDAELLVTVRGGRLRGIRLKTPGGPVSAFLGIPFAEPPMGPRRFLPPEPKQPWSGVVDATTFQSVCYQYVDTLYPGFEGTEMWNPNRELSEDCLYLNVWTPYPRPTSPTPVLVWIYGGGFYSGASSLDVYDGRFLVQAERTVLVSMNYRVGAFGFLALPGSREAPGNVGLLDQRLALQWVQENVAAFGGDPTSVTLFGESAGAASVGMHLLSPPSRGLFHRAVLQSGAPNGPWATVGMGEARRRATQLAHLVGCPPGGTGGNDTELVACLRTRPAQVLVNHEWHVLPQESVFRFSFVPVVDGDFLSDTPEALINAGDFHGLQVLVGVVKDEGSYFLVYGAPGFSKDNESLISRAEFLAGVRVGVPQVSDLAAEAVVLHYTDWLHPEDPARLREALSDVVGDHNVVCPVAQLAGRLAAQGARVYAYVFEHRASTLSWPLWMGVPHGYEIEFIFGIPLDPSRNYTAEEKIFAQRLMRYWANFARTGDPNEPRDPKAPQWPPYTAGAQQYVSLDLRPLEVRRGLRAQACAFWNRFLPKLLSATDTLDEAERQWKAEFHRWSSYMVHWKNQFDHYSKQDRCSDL
Sequence of synthetic tau (P10636 whole entry): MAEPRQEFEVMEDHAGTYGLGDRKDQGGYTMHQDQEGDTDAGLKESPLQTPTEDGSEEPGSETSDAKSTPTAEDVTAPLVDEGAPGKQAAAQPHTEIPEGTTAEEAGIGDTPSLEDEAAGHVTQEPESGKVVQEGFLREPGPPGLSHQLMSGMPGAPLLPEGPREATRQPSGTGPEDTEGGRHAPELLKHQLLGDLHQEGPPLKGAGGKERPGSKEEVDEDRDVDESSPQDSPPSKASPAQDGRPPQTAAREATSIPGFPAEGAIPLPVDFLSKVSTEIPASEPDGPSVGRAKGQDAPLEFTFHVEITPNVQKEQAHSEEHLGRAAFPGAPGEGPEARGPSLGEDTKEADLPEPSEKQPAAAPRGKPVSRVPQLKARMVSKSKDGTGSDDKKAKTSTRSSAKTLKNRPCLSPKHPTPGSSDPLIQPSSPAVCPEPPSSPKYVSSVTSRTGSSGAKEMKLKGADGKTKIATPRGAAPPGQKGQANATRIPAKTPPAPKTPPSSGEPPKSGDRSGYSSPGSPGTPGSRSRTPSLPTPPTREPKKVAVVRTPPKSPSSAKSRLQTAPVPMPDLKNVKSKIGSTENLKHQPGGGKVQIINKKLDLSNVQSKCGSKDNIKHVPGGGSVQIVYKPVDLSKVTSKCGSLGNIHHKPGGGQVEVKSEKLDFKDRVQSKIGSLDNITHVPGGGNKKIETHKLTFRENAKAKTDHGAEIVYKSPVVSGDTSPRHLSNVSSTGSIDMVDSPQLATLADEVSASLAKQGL

The inhibition is the change of the read-out against control, counted positive when it falls. Low readings indicate a response near the control, high ones a response far below the control. The Kd is the equilibrium constant for the complex coming apart. In general, IC50 refers to the concentration that gives 50% inhibition. A lower IC50 goes with inhibition by little substance. For the molecule `FC1CCN(c2ccn3c(n2)nc2ccccc23)CC1` [Compound T777, 2-(4-fluoropiperidin-1-yl)benzo[4,5]imidazo[1,2-a]pyrimidine], at MAO-A, 1 µM produced 9% inhibition. Besides, the Kd on synthetic tau is 0.019 µM. Moreover, the “CNS selectivity panel: Monoamine transp.” value with Monoamine transp. (10 uM) is “transp. (49%)”. In the data set with human AD brain slices, the “GM Intensity (comp. with W372)” value turned out to be 9% and the Tx/tau/amyloid correlation result is “yes”. The inhibition at 1 µM against MAO-B amounted to 0%. Further, the “human hepatocytes (stability)” value with human hepatocytes is reported as “not stable (polar metabolites)”. Also, the “CNS selectivity panel: Norepinephrine transp.” value at Norepinephrine transp. (10 uM) is “transp. (42%)”. Also, the “CNS selectivity panel: Bombesin BB3” value at Bombesin BB3 was “Bombesin BB3 (49%)”. Also, on AchE, 3 µM corresponded to half-maximal inhibition (IC50). In addition, the “selectivity (tau/Ab)” value in the data set with tau/Ab was determined as 25×. The Brain uptake entry in [1] is “yes (4 rats, 4 mice)”.
As for `FCCC1CCN(c2ccn3c(n2)nc2ccccc23)CC1` [Compound T808, 2-(4-(2-fluoroethyl)piperidin-1-yl)benzo[4,5]imidazo[1,2-a]pyrimidine], the values for the inhibition at 1 µM on MAO-A and on MAO-B were 22% and 29%, respectively. At synthetic tau, this molecule returned a Kd of 0.022 µM. Further, the IC50 with Monoamine transp. is 2.7 µM; at Norepinephrine transp., 0.82 µM; against AchE it was 3 µM. Moreover, the “GM Intensity (comp. with W372)” value in the data set with human AD brain slices is reported as 18%. For the same molecule, the Tx/tau/amyloid correlation entry in the data set on human AD brain slices is recorded as “yes”. For the same molecule, the “human hepatocytes (stability)” value in the data set with human hepatocytes was “stable”. In addition, the “CNS selectivity panel: Bombesin BB3” value on Bombesin BB3 is given as “Bombesin BB3 (<20%)”. The “selectivity (tau/Ab)” value with tau/Ab was 27×. Further, the Brain uptake entry in data set [1] is recorded as “yes (4 rats, 5 mice)”.
